In patent US10034886B2, “GLP-1 receptor modulators” (Celgene International II SÀRL, priority 2014, dated 2018):
Where two headings read alike, the source gives them in different places.

Molecular target: T1, GLP-1R (Homo sapiens, UniProt P43220)
T1 construct: host or cells: GLP-1R CRE-bla CHO-K1 cells
Assay: EC20 GLP-1(9-36) PAM cAMP assay: dose response of compound in the presence of fixed concentration of GLP-1(9-36)
Assay type: cell-based
Conditions: GLP-1R CRE-bla CHO-K1 cells, read-out: EC20 GLP-1(9-36) PAM EC50
Outline: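 GLP-1R CRE-bla CHO-K1 cells treated 30 min at 37 °C with 12-point compound dose response plus fixed EC20 GLP-1(9-36), with IBMX, in HBSS/HEPES/0.1% BSA pH 7.4. Total cAMP measured by luminescent detection against standard curve; EC50 and Emax from non-linear regression.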

[1] = compound dose response with fixed concentration of GLP-1(9-36)
[2] = dose response of compound in presence of fixed concentration of GLP-1(9-36)

T1 sequence (P43220 24-463): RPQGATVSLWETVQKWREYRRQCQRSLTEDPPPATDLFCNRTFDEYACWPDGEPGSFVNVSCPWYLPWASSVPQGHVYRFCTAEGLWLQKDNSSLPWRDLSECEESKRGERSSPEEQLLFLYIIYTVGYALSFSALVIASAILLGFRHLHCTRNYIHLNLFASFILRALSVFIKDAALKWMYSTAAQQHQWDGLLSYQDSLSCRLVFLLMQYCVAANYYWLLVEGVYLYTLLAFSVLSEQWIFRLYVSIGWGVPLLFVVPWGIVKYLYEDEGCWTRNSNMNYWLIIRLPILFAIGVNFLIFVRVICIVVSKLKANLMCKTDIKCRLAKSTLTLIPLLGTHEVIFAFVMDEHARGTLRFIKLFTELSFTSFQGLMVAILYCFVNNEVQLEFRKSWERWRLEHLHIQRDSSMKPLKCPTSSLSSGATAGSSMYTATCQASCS
T1 sequence (P01275 100-127 partner limits assumed): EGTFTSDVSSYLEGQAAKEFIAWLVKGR

CC[C@H]1CC[C@H](c2ccc(-c3cnc(-c4ccc(C[C@H](NC(=O)c5ccc(OC(C)C)cc5)C(=O)O)cc4)nc3)cc2)CC1 [Compound 1382]
EC50 [1]: 0.8 to 2.5 µM

CCCOc1ccc(-c2cnc(-c3ccc(C[C@H](NC(=O)c4ccc(C(C)(C)C)s4)C(=O)N[C@H](C)C(=O)O)cc3)nc2)cc1C [Compound 1005]
EC50 [2]: 0.8 to 2.5 µM

CC(C)CCCCOc1ccc(-c2cnc(-c3ccc(C[C@H](NC(=O)c4ccc(C(C)(C)C)s4)C(=O)NC(C(=O)O)C(O)c4ccccc4)cc3)nc2)cc1 (stereo partly shown) [Compound 923]
EC50 [2]: 0.8 to 2.5 µM

CCCCCCc1nnc(-c2cnc(-c3ccc(C[C@H](NC(=O)c4ccc(C(C)(C)C)cc4)C(=O)O)cc3)nc2)s1 [Compound 397, (S)-2-(4-(tert-butyl)benzamido)-3-(4-(5-(5-hexyl-1,3,4-thiadiazol-2-yl)pyrimidin-2-yl)phenyl)propanoic acid]
EC50 [2]: 2.5 to 5 µM

CCCCCCCOc1ccc(-c2cnc(-c3ccc(C[C@H](NC(=O)c4ccc(C(C)(C)C)s4)C(=O)NS(N)(=O)=O)cc3)nc2)cc1 [Compound 421]
EC50 [2]: 0.8 to 2.5 µM

CCCCCCCOc1ccc(-c2cnc(-c3ccc(C[C@H](NC(=O)c4ccc(C(C)C)cc4)C(=O)NC(C(=O)O)C(O)c4ccccc4)cc3)nc2)cc1 (stereo partly shown) [Compound 951]
EC50 [2]: 0.8 to 2.5 µM

C[C@@H](NC(=O)[C@H](Cc1ccc(-c2ncc(/C=C/CCCCc3ccccc3)cn2)cc1)NC(=O)c1ccc(C(C)(C)C)s1)C(=O)O [Compound 1253]
EC50 [1]: < 0.8 µM

CC(C)(C)c1ccc(-c2cnc(-c3ccc(C[C@H](NC(=O)c4ccc(C(C)(C)C)s4)C(=O)N4CC(C(=O)O)C4)cc3)nc2)cc1 [Compound 783]
EC50 [2]: 0.8 to 2.5 µM

C[C@@H](NC(=O)[C@H](Cc1ccc(-c2ncc(-c3ccc(OCc4ccccc4)nc3)cn2)cc1)NC(=O)c1ccc(C(C)(C)C)s1)C(=O)O [Compound 1040]
EC50 [2]: 5 to 10 µM

C[C@@H](NC(=O)[C@H](Cc1ccc(-c2ncc(-c3ncc(-c4ccccc4)cn3)cn2)cc1)NC(=O)c1ccc(C(C)(C)C)s1)C(=O)O [Compound 1132]
EC50 [2]: 0.8 to 2.5 µM

CCC[C@H]1CC[C@H](C2CCN(c3cnc(-c4ccc(CC(NC(=O)c5ccc(C(C)(C)C)s5)C(=O)NS(=O)(=O)CC5CC5)cc4)nc3)CC2)CC1 (stereo partly shown) [Compound 1542]
EC50 [1]: < 0.8 µM

CCCCCCCOc1ccc(-c2cnc(-c3ccc(C[C@H](NC(=O)c4ccc(C(C)(C)C)cc4)C(=O)NC(CCC)C(=O)O)cc3)nc2)cc1 (stereo partly shown) [Compound 562]
EC50 [2]: < 0.8 µM

CCCCCCCOc1ccc(-c2cnc(-c3ccc(C[C@H](NC(=O)c4ccc(C(C)(C)C)cc4)C(=O)N[C@H](CCCNC(=O)OCc4ccccc4)C(=O)O)cc3)nc2)cc1 [Compound 575]
EC50 [2]: 2.5 to 5 µM

CCCCCCCOc1ccc(-c2cnc(-c3ccc(C[C@H](NC(=O)c4ccc(N5CCCC5)cc4)C(=O)NCCC(=O)O)cc3)nc2)cc1 [Compound 869]
EC50 [2]: 2.5 to 5 µM

Cc1cccc(-c2noc(-c3cnc(-c4ccc(C[C@H](NC(=O)c5ccc(C(C)(C)C)cc5)C(=O)NCCC(=O)O)cc4)nc3)n2)c1 [Compound 750]
EC50 [2]: 2.5 to 5 µM

CCCCCCCOc1ccc(-c2nnc(-c3ccc(C[C@H](NC(=O)c4ccc(C(C)(C)C)cc4)C(=O)N4CC(C(=O)O)C4)cc3)s2)cc1 [Compound 1551]
EC50 [1]: 2.5 to 5 µM

CCCCCCCOc1ccc(-c2cnc(-c3ccc(C[C@H](NC(=O)c4ccc(C(C)(C)C)cc4)C(=O)NC(CC(=O)O)c4ccccc4O)cc3)nc2)cc1 (stereo partly shown) [Compound 581]
EC50 [2]: 0.8 to 2.5 µM

COc1ccc(-c2cnc(-c3ccc(C[C@H](NC(=O)c4ccc(C(C)(C)C)cc4)C(=O)N[C@H](C)C(=O)O)cc3)nc2)cc1 [Compound 800]
EC50 [2]: 5 to 10 µM

CCCCCCCOc1ccc(-c2cnc(-c3ccc(C[C@H](NC(=O)c4ccc(C(C)(C)C)s4)C(=O)NCC4CCNCC4)cc3)nc2)cc1 [Compound 463]
EC50 [2]: 5 to 10 µM

CCCCCCCOc1ccc(-c2cnc(-c3ccc(C[C@H](NC(=O)c4ccc(C(C)(C)C)s4)C(=O)NCC4(C)CNC4)cc3)nc2)cc1 [Compound 986]
EC50 [2]: 0.8 to 2.5 µM

CCOCCCCOc1ccc(-c2cnc(-c3ccc(C[C@H](NC(=O)c4ccc(C(C)(C)C)cc4)C(=O)NCCC(=O)O)cc3)nc2)cc1 [Compound 443]
EC50 [2]: 0.8 to 2.5 µM

CCCCCCCOc1ccc(-c2cnc(-c3ccc(C[C@H](NC(=O)c4ccc(C(C)(C)C)s4)C(=O)N4CCC[C@H]4C(=O)O)cc3)nc2)cc1 [Compound 328, (S)-1-((S)-2-(5-(tert-butyl)thiophene-2-carboxamido)-3-(4-(5-(4-(heptyloxy)-phenyl)pyrimidin-2-yl)phenyl)propanoyl)pyrrolidine-2-carboxylic acid]
EC50 [2]: < 0.8 µM

CCCCCCCOc1ccc(-c2cnc(-c3ccc(CC(NC(=O)c4ccc(C(C)(C)C)s4)C(=O)NCCCCC(=O)O)cc3)nc2)cc1 (stereo not shown) [Compound 459]
EC50 [2]: 0.8 to 2.5 µM

CC(C)CCCOc1ccc(-c2cnc(-c3ccc(C[C@H](NC(=O)c4ccn(C(C)(C)C)c4)C(=O)N4CC(C(=O)O)C4)cc3)nc2)cc1 [Compound 1242]
EC50 [1]: 0.8 to 2.5 µM

C[C@@H](NC(=O)[C@H](Cc1ccc(-c2ncc(/C=C\c3ccccc3)cn2)cc1)NC(=O)c1ccc(C(C)(C)C)s1)C(=O)O [Compound 1050]
EC50 [2]: 0.8 to 2.5 µM

CCCCCCCOc1ccc(-c2cnc(-c3ccc(C[C@H](NC(=O)c4ccc(C(C)(C)C)s4)C(=O)N4CCNCC4C(=O)O)cc3)nc2)cc1 (stereo partly shown) [Compound 891]
EC50 [2]: 0.8 to 2.5 µM

Cc1cc(C)cc(-c2cnc(-c3ccc(C[C@H](NC(=O)c4ccc(C(C)(C)C)s4)C(=O)N[C@H](C)C(=O)O)cc3)nc2)c1 [Compound 1042]
EC50 [2]: 5 to 10 µM

CC(C)(C)c1ccc(C(=O)N[C@@H](Cc2ccc(-c3ncc(-c4ccc([C@H]5CC[C@H](C(C)(C)C)CC5)cc4)cn3)cc2)C(=O)N2CC(C(=O)O)C2)s1 [Compound 1181]
EC50 [2]: 0.8 to 2.5 µM

CC(C)(C)c1ccc(C(=O)N[C@@H](Cc2ccc(-c3ncc(-c4ccc(C5CCC(F)(F)CC5)cc4)cn3)cc2)C(=O)N2CC(C(=O)O)C2)s1 [Compound 1183]
EC50 [2]: < 0.8 µM

CCC[C@H]1CC[C@H](C2CCN(c3cnc(-c4ccc(C[C@H](NC(=O)c5ccc(C6CC6)s5)C(=O)N5CC(C(=O)O)C5)cc4)nc3)CC2)CC1 [Compound 1515]
EC50 [1]: < 0.8 µM

C[C@@H](NC(=O)[C@H](Cc1ccc(-c2ncc(-c3ccc(-c4ccccc4)cc3F)cn2)cc1)NC(=O)c1ccc(C(C)(C)C)s1)C(=O)O [Compound 1318]
EC50 [1]: < 0.8 µM

CCCCCCCOc1ccc(-c2cnc(-c3ccc(C[C@H](NC(=O)c4cnn(C(C)(C)C)c4)C(=O)N4CC[C@H](C(=O)O)C4)cc3)nc2)cc1 [Compound 867]
EC50 [2]: 0.8 to 2.5 µM

CCCCCCCOc1ccc(-c2cnc(-c3ccc(C[C@H](NC(=O)c4ccc(C(C)(C)C)s4)C(=O)N[C@H](C)C(=O)O)cc3)c(C)c2)cc1 [Compound 812]
EC50 [2]: 0.8 to 2.5 µM

CCCCCCCOc1ccc(-c2cnc(-c3ccc(C[C@H](NC(=O)c4ccc(C(C)(C)C)cc4)C(=O)N[C@@H](CO)C(=O)O)cc3)nc2)cc1 [Compound 418]
EC50 [2]: < 0.8 µM

C[C@@H](NC(=O)[C@H](Cc1ccc(-c2ncc(N3CCN(c4ccc(C(C)(C)C)cc4)C3=O)cn2)cc1)NC(=O)c1ccc(C(C)(C)C)s1)C(=O)O [Compound 1268]
EC50 [1]: < 0.8 µM

C[C@@H](NC(=O)[C@H](Cc1ccc(-c2ncc(-c3ccc(OCc4ccccc4)c(Cl)c3)cn2)cc1)NC(=O)c1ccc(C(C)(C)C)s1)C(=O)O [Compound 1001]
EC50 [2]: 2.5 to 5 µM

CCCCCCCOc1ccc(-c2cnc(-c3ccc(C[C@H](NC(=O)c4ccc(C(C)(C)C)s4)C(=O)NC(C(=O)O)C(O)C(C)C)cc3)nc2)cc1 (stereo partly shown) [Compound 880]
EC50 [2]: < 0.8 µM

CC(C)COc1ncc(-c2cnc(-c3ccc(C[C@H](NC(=O)c4ccc(C(C)(C)C)s4)C(=O)N[C@H](C)C(=O)O)cc3)nc2)cc1Cl [Compound 1038]
EC50 [2]: 2.5 to 5 µM

CCCCCCCOc1ccc(-c2cnc(-c3ccc(C[C@H](NC(=O)c4ccc(C(C)(C)C)s4)C(=O)N[C@H](C(=O)O)[C@@H](N)c4ccccc4)cc3)nc2)cc1 [Compound 883]
EC50 [2]: 5 to 10 µM

CCCCOc1ccc(CC(=O)N[C@@H](Cc2ccc(-c3ncc(-c4ccc([C@H]5CC[C@H](CC)CC5)cc4)cn3)cc2)C(=O)N2CC(C(=O)O)C2)cc1 [Compound 1161]
EC50 [2]: 0.8 to 2.5 µM

C[C@@H](NC(=O)[C@H](Cc1ccc(-c2ncc(-c3ccc(C4CC4)cc3)cn2)cc1)NC(=O)c1ccc(C(C)(C)C)s1)C(=O)O [Compound 1306]
EC50 [1]: 0.8 to 2.5 µM

CCCCCCCOc1ccc(-c2cnc(-c3ccc(C[C@H](NC(=O)c4ccc(C(C)(C)C)nc4)C(=O)N4CC(C(=O)O)C4)cc3)nc2)cc1 [Compound 1117]
EC50 [2]: 0.8 to 2.5 µM

CC(C)(C)c1ccc(C(=O)N[C@@H](Cc2ccc(-c3ncc(-c4ccc(C5CCCCC5)cc4)cn3)cc2)C(=O)O)s1 [Compound 1345]
EC50 [1]: 0.8 to 2.5 µM

CCCCCCCOc1ccc(-c2cnc(-c3ccc(C[C@H](NC(=O)c4ccc(C(C)(C)C)s4)C(=O)N[C@@H](Cc4ccc(O)c(O)c4)C(=O)O)cc3)nc2)cc1 [Compound 601]
EC50 [2]: 0.8 to 2.5 µM

CCCCCCCOc1ccc(-c2cnc(-c3ccc(C[C@H](NC(=O)c4ccc(C(C)(C)C)s4)C(=O)NC(Cc4ccc(Cl)cc4)C(=O)O)cc3)nc2)cc1 (stereo partly shown) [Compound 615]
EC50 [2]: 5 to 10 µM

CCCCCCCOc1ccc(-c2cnc(-c3ccc(CC(NC(=O)c4ccc(C(C)(C)C)s4)C(=O)N[C@@H](Cc4c[nH]c5ccccc45)C(=O)O)cc3)nc2)cc1 (stereo partly shown) [Compound 432]
EC50 [2]: < 0.8 µM

CCCCCCCOc1ccc(-c2cnc(-c3ccc(C[C@H](NC(=O)c4ccc(C(C)C)s4)C(=O)NC(C(=O)O)C(O)c4ccccc4)cc3)nc2)cc1 (stereo partly shown) [Compound 958]
EC50 [2]: 0.8 to 2.5 µM

CCCCCCCOc1ccc(-c2cnc(-c3ccc(C[C@H](NC(=O)c4ccc(C(C)(C)C)s4)C(=O)N4CCC[C@H]4C(=O)NCC(=O)O)cc3)nc2)cc1 [Compound 493]
EC50 [2]: < 0.8 µM

CCCCCCCCOc1ccc(-c2cnc(-c3ccc(C[C@H](NC(=O)c4ccc(C(C)(C)C)s4)C(=O)N4CC(C(=O)O)C4)cc3)nc2)cc1 [Compound 778]
EC50 [2]: < 0.8 µM
